Reference: patent US20240383853A1, “OXIMES AND THEIR USE IN TREATMENT OF GBA-RELATED DISEASES” (ZEVRA DENMARK A/S, priority 2021, published 2024)
Where a name gives a salt, the structure may show the parent alone. Marks after values point to notes of the source that are not given here.

Target: T1, glucosylceramidase (GCase, GBA) in human fibroblast cell line GM10915 harboring the L444P GBA mutation (Homo sapiens, UniProt P04062, L483P)
T1 construct: Human fibroblast cell line GM10915 harboring the L444P GBA mutation; host or cells: GM10915 human fibroblasts
T1 sequence (P04062 40-536 L483P): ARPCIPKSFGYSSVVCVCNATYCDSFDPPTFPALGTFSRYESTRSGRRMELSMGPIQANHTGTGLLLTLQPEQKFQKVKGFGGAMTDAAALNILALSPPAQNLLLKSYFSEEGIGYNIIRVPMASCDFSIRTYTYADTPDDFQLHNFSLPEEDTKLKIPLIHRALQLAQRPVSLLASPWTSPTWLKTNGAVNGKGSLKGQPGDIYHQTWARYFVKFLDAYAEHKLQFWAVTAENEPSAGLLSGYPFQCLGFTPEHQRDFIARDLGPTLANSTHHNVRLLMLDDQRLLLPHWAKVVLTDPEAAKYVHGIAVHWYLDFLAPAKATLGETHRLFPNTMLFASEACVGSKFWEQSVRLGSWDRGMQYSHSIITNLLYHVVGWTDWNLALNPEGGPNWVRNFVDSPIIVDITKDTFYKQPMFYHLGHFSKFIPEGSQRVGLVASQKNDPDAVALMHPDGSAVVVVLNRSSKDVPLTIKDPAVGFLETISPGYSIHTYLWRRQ
Assay: GCase activity assay (4-MUG substrate, normalised to crystal violet staining) in GM10915 fibroblasts
Format: cell-based
Conditions: five days exposure; for GBA EC1.5: concentration where Percent GCase activity = 150% (1.5-fold induction), 8-point dose range; for Emax / GBA Emax: maximum Percent GCase activity relative to untreated cells in the dose range tested
Procedure: Human fibroblast cell line GM10915 harboring the L444P GBA mutation was obtained from Coriell Biorepositories. All chemicals (Glacial acetic acid, Glycine, 4-Methylumbelliferyl b-D-glucopyranoside (4-MUG), Sodium acetate trihydrate, Sodium hydroxide, Crystal violet, SDS, Ammonium hydroxide) were obtained from Sigma-Aldrich (Denmark). Compounds tested for GCase activity were dissolved in H2O or DMSO.
The GM10915 cell line was cultured under standard cell culture conditions (37° C. and 5% CO2) in complete DMEM medium supplemented with nonessential amino acids (NEAA), 1% Pen-Strep and 12% FCS. Cells were seeded at a density of 10^4 cells/well in 100 μL complete medium in one black 96-well plate for glucosylceramidase (GCase) activity measurement and in one clear 96-well plate for crystal violet staining to correct for cell density. Crystal violet staining is performed to obtain quantitative information about the relative density of cells adhering to multi-wells plates.
The assay was adapted from Sawkar et al (2002) and briefly described in the following. The day after seeding of cells, the medium was replaced with fresh medium containing the compounds to be tested. Compounds were tested in duplicate and in an 8-point diluted dose range to obtain a dose response. Cells were exposed with compounds for five days. Fresh compound was added every 2-3 days. PBS was included to define the basal level of GCase activity.
Cells were washed three times with 200 μL PBS per well and 50 μL of 2.5 mM 4-MUG buffer (4-MUG dissolved in 0.2 M acetate buffer pH 4.0) was added and the cells were incubated at 37° C., 5% CO2 for 23 hours. The reaction was stopped by adding 150 μL 0.2 M glycine buffer (pH 10.8). Fluorescence was measured with a Varioskan® Flash reader (Thermo Scientific) at an excitation/emission setting of 365/445 nm.
Cells were treated with compounds in a parallel setup identical to the setup to test for GCase activity. At the end of compound treatment, cells were washed once with 200 μL PBS per well and 50 μL 0.1% w/v crystal violet (in H2O) was added. Following 10 min. of incubation, the crystal violet solution was removed, and the cells were washed three times with 200 μL PBS and 100 μL 1% SDS was added to solubilize the stain. The plate was agitated on an orbital shaker for 10-30 min. Absorbance (A) is measured at […] using a Varioskan® Flash reader (Thermo Scientific).
The fluorescence signal (F) derived from the GCase measurement is normalized to the absorbance signal (A) derived from the crystal violet staining. The percent GCase activity resulting from compound treatment is calculated relative to the basal activity obtained from untreated cells.
Maximal effect of compounds (Emax) is determined from the dose response effects as the maximum “Percent GCase activity” achieved in the dose range tested.

| Compound | GBA EC1.5 | Emax | GBA EC1.5 (listed as 550) | GBA Emax (listed as 550) | GBA Emax |
| --- | --- | --- | --- | --- | --- |
| CN1CCN(CC(O)CO/N=C(\Cl)C2(C)CCNCC2)CC1 (stereo not shown) [ID 402, N-(2-hydroxy-3-(4-methylpiperazin-1-yl)propoxy)-4-methylpiperidine-4-carbimidoyl chloride tri-2,2,2-trifluoroacetate] | 50 µM | 408% |  |  |  |
| Nc1c(Br)cc(Br)cc1CN[C@H]1CC[C@H](O)CC1 [Ambroxol, reference compound] | >20* *The 1.5-fold induction criteria was not reached within the tested concentration range μM | 127% |  |  |  |
| CCC1(/C(Cl)=N/OCC(O)CN2CCCCC2)CCNCC1 (stereo not shown) [ID 409, 4-ethyl-N-(2-hydroxy-3-(piperidin-1-yl)propoxy)piperidine-4-carbimidoyl chloride di-2,2,2-trifluoroacetate] | 25 µM | 255% |  |  |  |
| [O-][n+]1cccc(/C(Br)=N/OCC(O)CN2CCCCC2)c1 (stereo not shown) [ID 257] | 35 µM | 307% |  |  |  |
| N-(2-hydroxy-3-(piperidin-1-yl)propoxy)-4-((6-methylpyridin-3-yl)methyl)piperidine-4-carbimidoyl chloride tri-2,2,2-trifluoroacetate [ID 493] | 18 µM |  |  |  | 279% |
| CC1(C(Cl)=NOCC(O)CN2CC3CC3C2)CCNCC1 (single isomer, unassigned) [ID 403, N-(3-(3-azabicyclo[3.1.0]hexan-3-yl)-2-hydroxypropoxy)-4-methylpiperidine-4-carbimidoyl chloride di-2,2,2-trifluoroacetate] | 48 µM | 264% |  |  |  |
| COCCC1(/C(Cl)=N/OCC(O)CN2CCCCC2)CCNCC1 (stereo not shown) [ID 448, N-(2-hydroxy-3-(piperidin-1-yl)propoxy)-4-(2-methoxyethyl)piperidine-4-carbimidoyl chloride di-2,2,2-trifluoroacetate] | 34 µM | 468% |  |  |  |
| CC1(/C(Cl)=N/OCC(O)CN2CCCCC2)CCNCC1 (stereo not shown) [ID 336, N-(2-hydroxy-3-(piperidin-1-yl)propoxy)-4-methylpiperidine-4-carbimidoyl chloride dihydrochloride] | 37 µM | 320% |  |  |  |
| CC1(C(Cl)=NOCC(O)CN2CC3CCC2C3)CCNCC1 (single isomer, unassigned) [ID 410, N-(3-(2-azabicyclo[2.2.1]heptan-2-yl)-2-hydroxypropoxy)-4-methylpiperidine-4-carbimidoyl chloride di-2,2,2-trifluoroacetate] | 43 µM | 344% |  |  |  |

More lines, main results first:

| GBA EC1.5 | Emax | GBA EC1.5 (listed as 550) | GBA Emax (listed as 550) | Compound | GBA Emax |
| --- | --- | --- | --- | --- | --- |
| 24 µM | 354% |  |  | Cc1cc(C(Cl)=NOCC(O)CN2CCCCC2)on1 (stereo not shown) [ID 475, N-(2-hydroxy-3-(piperidin-1-yl)propoxy)-3-methylisoxazole-5-carbimidoyl chloride] |  |
|  |  | 27 µM | 159% | OC(CO/N=C(\Cl)C1(Cc2cccnc2)CCNCC1)CN1CCCCC1 (stereo not shown) [ID 550] |  |
| 3 µM | 239% |  |  | OC(CON=C(Cl)CCN1CCCC1)CN1CCCCC1 (stereo not shown) [ID 562, N-(2-hydroxy-3-(piperidin-1-yl)propoxy)-3-(pyrrolidin-1-yl)propanimidoyl chloride] |  |
| 48 µM | 136% |  |  | CN(CC/C(Cl)=N\OCC(O)CN1CCCCC1)C(=O)OC(C)(C)C (stereo not shown) [ID 599, tert-butyl (3-chloro-3-((2-hydroxy-3-(piperidin-1-yl)propoxy)imino)propyl)(methyl)carbamate] |  |
| 30 µM | 239% |  |  | CN(C)CCC(Br)=NOCC(O)CN1CCCCC1 (single isomer, unassigned) [ID 532, 3-(dimethylamino)-N-(2-hydroxy-3-(piperidin-1-yl)propoxy)propanimidoyl bromide] |  |
| 3 µM | 211% |  |  | OC(CON=C(Cl)CCN1CCCCC1)CN1CCCCC1 (stereo not shown) [ID 563, N-(2-hydroxy-3-(piperidin-1-yl)propoxy)-3-(piperidin-1-yl)propanimidoyl chloride] |  |
| 35 µM | 174% |  |  | CN1CCN(CC(O)CON=C(Cl)C2(Cc3cccnc3)CCNCC2)CC1 (single isomer, unassigned) [ID 513, N-(2-hydroxy-3-(4-methylpiperazin-1-yl)propoxy)-4-(pyridin-3-ylmethyl)piperidine-4-carbimidoyl chloride tetra-2,2,2-trifluoroacetate] |  |
| 20 µM | 310% |  |  | OC(CON=C(Br)c1ccc(Cl)nc1)CN1CCCCC1 (stereo not shown) [ID 504, 6-chloro-N-(2-hydroxy-3-(piperidin-1-yl)propoxy)nicotinimidoyl bromide] |  |
| 50 µM | 136% |  |  | OC(CO/N=C(\Cl)CCN1CCNCC1)CN1CCCCC1 (stereo not shown) [ID 593] |  |
| 19 µM | 128% |  |  | Cc1cc(Cl)ncc1C(Cl)=NOCC(O)CN1CCCCC1 (stereo not shown) [ID 501, 6-chloro-N-(2-hydroxy-3-(piperidin-1-yl)propoxy)-4-methylnicotinimidoyl chloride] |  |
| 18 µM | 221% |  |  | OC(CON=C(Cl)c1ccc(Cl)nc1)CN1CCCCC1 (stereo not shown) [ID 466, 6-chloro-N-(2-hydroxy-3-(piperidin-1-yl)propoxy)nicotinimidoyl chloride] |  |
